From patent publication US20150346214A1, “DETECTION OF MEMBRANE PROTEINS” (priority 2012, published 2015)
“Also recorded” adds a separate entry of the source.

Target: T1, mechanosensitive channel of large conductance (MscL) (Mycobacterium tuberculosis, UniProt P9WJN5)
T1 sequence (P9WJN5 1-151): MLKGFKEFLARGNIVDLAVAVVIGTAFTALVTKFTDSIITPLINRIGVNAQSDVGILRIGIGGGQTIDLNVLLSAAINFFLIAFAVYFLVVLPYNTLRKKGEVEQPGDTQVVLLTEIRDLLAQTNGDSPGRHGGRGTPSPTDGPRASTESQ
Experiment: Gas-phase (collision-induced) unfolding IM-MS: stabilisation of MscL by bound phospholipid
Type: binding
Conditions: +12 charge state, versus apo form

In the case of `CCCCCCCC/C=C\CCCCCCCC(=O)OC[C@H](COP(=O)(O)O[C@H]1C(O)C(O)C(O)[C@@H](OP(=O)(O)O)C1O)OC(=O)CCCCCCC/C=C\CCCCCCCC` (stereo partly shown) [PI], the “average stabilisation of MscL by bound phospholipid (resistance to gas-phase unfolding)” value is reported as “large increase in stability when binding multiple lipids, greater than all other phospholipids investigated; also recorded: Major cumulative effects on stability”.
